tested on: HCT-15; experiment: cells; details: Homo sapiens, HCT-15, 72 h
Description: Antiproliferative activity against human HCT15 cells after 72 hrs by MTT assay

Row | IC50 [nM] | Compound
1 | 187 | Cc1cc(O)c(-c2ccc([C@@H](C)CN)cc2)c2c1[nH]c(=O)c1sccc12
2 | 76 | Cc1cc(O)c(-c2ccc([C@@H](C)CN(C)C)cc2)c2c1[nH]c(=O)c1c(O)cccc12
3 | 162 | Cc1cc(O)c(-c2ccc([C@@H](C)N(C)C)cc2)c2c1[nH]c(=O)c1c(O)cccc12
4 | 309 | C[C@@H](CN)c1ccc(-c2c(O)cc(Cl)c3[nH]c(=O)c4ccccc4c23)cc1

tested on: A549; experiment: cells; details: Homo sapiens, A549, 72 h
Description: Antiproliferative activity against human A549 cells after 72 hrs by MTT assay

Row | IC50 [nM] | Compound
5 | 437 | NCC1(c2ccc(-c3c(O)cc(Cl)c4[nH]c(=O)c5c(O)cccc5c34)cc2)CC1
6 | 894 | COc1cc(C)c2[nH]c(=O)c3ccccc3c2c1-c1ccc(C2(CN)CC2)cc1
7 | 250 | Cc1cc(O)c(-c2ccc([C@@H](C)N(C)C)cc2)c2c1[nH]c(=O)c1ccccc12
8 | > 1000 | Cc1cc(O)c(-c2ccc(C3(CN(C)C)CC3)cc2)c2c1[nH]c(=O)c1ccccc12
9 | > 1000 | Cc1ccc2c(c1)c(=O)[nH]c1c(C)cc(O)c(-c3ccc([C@@H](C)N)cc3)c12
10 | > 1000 | Cc1cc(O)c(-c2ccc(C3(CN(C)C)CC3)cc2)c2c1[nH]c(=O)c1c(N(C)C)cccc12
11 | > 1000 | Cc1cc(O)c(-c2ccc([C@@H](C)CN)cc2)c2c1[nH]c(=O)c1c(N(C)C)cccc12
12 | 406 | Cc1cc(O)c(-c2ccc(C3(CN(C)C)CC3)cc2)c2c1[nH]c(=O)c1c(O)cccc12
13 | 898 | CN(C)CC1(c2ccc(-c3c(O)cc(Cl)c4[nH]c(=O)c5c(O)cccc5c34)cc2)CC1
14 | 554 | C[C@@H](N)c1ccc(-c2c(O)cc(Cl)c3[nH]c(=O)c4c(O)cccc4c23)cc1
15 | 19.5 | Cc1cc(O)c(-c2ccc([C@@H](C)CN)cc2)c2c1[nH]c(=O)c1sccc12
16 | 136 | Cc1cc(O)c(-c2ccc(C3(CN)CC3)cc2)c2c1[nH]c(=O)c1c(O)cccc12
17 | 113 | Cc1cc(O)c(-c2ccc([C@@H](C)CN(C)C)cc2)c2c1[nH]c(=O)c1c(O)cccc12
18 | > 1000 | COc1cc(C)c2[nH]c(=O)c3ccccc3c2c1-c1ccc([C@@H](C)N)cc1
19 | 554 | C[C@@H](CN(C)C)c1ccc(-c2c(O)cc(Cl)c3[nH]c(=O)c4c(O)cccc4c23)cc1
20 | 128 | Cc1cc(O)c(-c2ccc([C@@H](C)N(C)C)cc2)c2c1[nH]c(=O)c1c(O)cccc12
21 | > 1000 | C[C@@H](CN)c1ccc(-c2c(O)cc(Cl)c3[nH]c(=O)c4ccccc4c23)cc1
22 | > 1000 | Cc1ccc2c(c1)c(=O)[nH]c1c(C)cc(O)c(-c3ccc([C@@H](C)N(C)C)cc3)c12
23 | 103 | C[C@@H](CN)c1ccc(-c2c(O)cc(Cl)c3[nH]c(=O)c4c(O)cccc4c23)cc1
24 | > 1000 | Cc1ccc2c(c1)c(=O)[nH]c1c(C)cc(O)c(-c3ccc([C@@H](C)CN(C)C)cc3)c12
25 | 516 | C[C@H](c1ccc(-c2c(O)cc(Cl)c3[nH]c(=O)c4c(O)cccc4c23)cc1)N(C)C
26 | > 1000 | Cc1ccc2c(c1)c(=O)[nH]c1c(C)cc(O)c(-c3ccc([C@@H](C)CN)cc3)c12

tested on: HCT-116; experiment: cells; details: Homo sapiens, HCT-116, 72 h
Description: Antiproliferative activity against human HCT116 cells after 72 hrs by MTT assay

Row | IC50 [nM] | Compound
27 | 564 | NCC1(c2ccc(-c3c(O)cc(Cl)c4[nH]c(=O)c5c(O)cccc5c34)cc2)CC1
28 | > 1000 | COc1cc(C)c2[nH]c(=O)c3ccccc3c2c1-c1ccc(C2(CN)CC2)cc1
29 | 314 | Cc1cc(O)c(-c2ccc([C@@H](C)N(C)C)cc2)c2c1[nH]c(=O)c1ccccc12
30 | 950 | Cc1cc(O)c(-c2ccc(C3(CN(C)C)CC3)cc2)c2c1[nH]c(=O)c1ccccc12
31 | 571 | Cc1ccc2c(c1)c(=O)[nH]c1c(C)cc(O)c(-c3ccc([C@@H](C)N)cc3)c12
32 | > 1000 | Cc1cc(O)c(-c2ccc(C3(CN(C)C)CC3)cc2)c2c1[nH]c(=O)c1c(N(C)C)cccc12
33 | > 1000 | Cc1cc(O)c(-c2ccc([C@@H](C)CN)cc2)c2c1[nH]c(=O)c1c(N(C)C)cccc12
34 | 141 | Cc1cc(O)c(-c2ccc(C3(CN(C)C)CC3)cc2)c2c1[nH]c(=O)c1c(O)cccc12
35 | > 1000 | CN(C)CC1(c2ccc(-c3c(O)cc(Cl)c4[nH]c(=O)c5c(O)cccc5c34)cc2)CC1
36 | 720 | C[C@@H](N)c1ccc(-c2c(O)cc(Cl)c3[nH]c(=O)c4c(O)cccc4c23)cc1
37 | 18.9 | Cc1cc(O)c(-c2ccc([C@@H](C)CN)cc2)c2c1[nH]c(=O)c1sccc12
38 | 44.7 | Cc1cc(O)c(-c2ccc(C3(CN)CC3)cc2)c2c1[nH]c(=O)c1c(O)cccc12
39 | 215 | Cc1cc(O)c(-c2ccc([C@@H](C)CN(C)C)cc2)c2c1[nH]c(=O)c1c(O)cccc12
40 | > 1000 | COc1cc(C)c2[nH]c(=O)c3ccccc3c2c1-c1ccc([C@@H](C)N)cc1
41 | 534 | C[C@@H](CN(C)C)c1ccc(-c2c(O)cc(Cl)c3[nH]c(=O)c4c(O)cccc4c23)cc1
42 | 396 | Cc1cc(O)c(-c2ccc([C@@H](C)N(C)C)cc2)c2c1[nH]c(=O)c1c(O)cccc12
43 | 636 | C[C@@H](CN)c1ccc(-c2c(O)cc(Cl)c3[nH]c(=O)c4ccccc4c23)cc1
44 | > 1000 | Cc1ccc2c(c1)c(=O)[nH]c1c(C)cc(O)c(-c3ccc([C@@H](C)N(C)C)cc3)c12
45 | 372 | C[C@@H](CN)c1ccc(-c2c(O)cc(Cl)c3[nH]c(=O)c4c(O)cccc4c23)cc1
46 | 830 | Cc1ccc2c(c1)c(=O)[nH]c1c(C)cc(O)c(-c3ccc([C@@H](C)CN(C)C)cc3)c12
47 | > 1000 | C[C@H](c1ccc(-c2c(O)cc(Cl)c3[nH]c(=O)c4c(O)cccc4c23)cc1)N(C)C
48 | 962 | Cc1ccc2c(c1)c(=O)[nH]c1c(C)cc(O)c(-c3ccc([C@@H](C)CN)cc3)c12

Reference: ChEMBL document CHEMBL4382235, “Design, synthesis and biological evaluation of novel 1-phenyl phenanthridin-6(5H)-one derivatives as anti-tumor agents targeting TOPK” (Eur J Med Chem, 2019)
